Results reported in patent US20040121965A1, “Method of treating resistant tumors” (Wyeth Holdings Corporation, priority 2002, published 2004).
Read-outs that look alike come from different tables or passages of the source.

How the values were obtained:
KB-3-1 = assay: Cell survival assay (SRB), KB-3-1; assay type: cell-based, human
Procedure, shortened: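 Step 1: add serial compound dilutions to cells in duplicate. Step 2: incubate 3 days. Step 3: fix in 10% TCA for 1 hr at 4 °C, stain with 0.04% SRB for 10 min, wash in 1% acetic acid, solubilise in 10 mM Trizma Base, measure absorbance and derive the 50%-growth-inhibition concentration.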

KB-8-5 (MDR1+) [1] = system: KB-8-5 (MDR1+)
KB-V1 (MDR1++) [2] = system: KB-V1 (MDR1++)
KB-8-5 (MDR1+) [3] = assay: Cell survival assay (SRB), KB-8-5 (MDR1+); conditions: for IC50: Homo sapiens; for RR, relative resistance: IC50 KB-8-5 / IC50 KB-3-1; for resistance of KB-8-5 cells: KB-8-5 (KB-85) vs KB-3-1, in vitro
KB-V1 (MDR1++) [4] = assay: Cell survival assay (SRB), KB-V1 (MDR1++); conditions: for IC50: Homo sapiens; for RR, relative resistance: IC50 KB-V1 / IC50 KB-3-1
S1 = assay: Cell survival assay (SRB), S1; assay type: cell-based; conditions: Homo sapiens; S1 parental; Table 5; read-out: S1 IC50, nM (N)
Description: (§1) Cells lines with previously known mechanisms of resistance. […] Res. 8: 207-218,1996); KB-3-1 (parental derived from an epidermoid carcinoma), KB-8.5, KB-V1 (Akiyama S-I, Fojo A, Hanover J A, Pastan I, Gottesman M M. Isolation and genetic characterization of human KB cell lines resistant to multiple drugs. Somatic Cell Mol. Gen., 11: 117-126,1985; Shen D-W, Cardarelli C, Hwang J, Cornwell M, Richert N, Ishii S, Pastan I, Gottesman MM. […] J. Biol. Chem., 261: 7762-7770, 1986); and HL-60 (parental derived from human leukemia) and HL60/AR (McGrath T., Center M. S. Adriamycin resistance in HL60 cells in the absence of detectable P-glycoprotein. Biochem. Res. Commun., 145:1171-1176,1987); A549 and A549.EpoB40 (He L., Yang C.-P.H., Horwitz S. B. Mutations in p-tubulin map to domains involved in regulation of microtubule stability in epothilone-resistant cell lines. Molecular Cancer Therapeutics. 1: 3-10, 2001). HCT-15 human colon carcinoma and DLD-1 human colon carcinoma are obtained from American Tissue Culture Collection. The MX-1W carcinoma is a Wyeth variant orginally obtained as MX-1 breast carcinoma from the National Cancer Institute. Cell lines selected for resistance to Representative Example 129. KB-3-1 cells are selected for resistance to Example 129 by chronically exposing cells to increasing concentrations of Example 129.
(§2) 2.2. Cell Survival Assay: Standard Pharmacological Test Procedure. The concentration of candidate inhibitor required to inhibit 50% of cell growth (IC50) is done according to previously reported methods. […] Compounds are serially diluted into media as 2× stocks and 100 μl added to cells in duplicate. Compounds are incubated with cells for 3 days. At the end of the incubation period the sulforhodamine B (SRB) assay, which measures protein content as an assessment of cell survival, is performed as described previously (Skehan P, Storeng R, Scudiero D, Monks A, McMahon J, Vistica D, Warren J T, Bokesch H, Kenney S, Boyd MR. New calorimetric cytotoxicity assay for anticancer-drug screening. J Natl Cancer Inst 1990 Jul 4;82(13):1107-12) with some modification as follows. For KB-3-1 cells with 20% FCS, media is gently decanted and replaced with 200 μl of serum-free media mixed with cold 50% TCA for a final concentration of 10% TCA. The plates are incubated for 1 hr at 4° C., followed by washing 5 times in cold distilled water, then air dried overnight. The fixed cells are stained for 10 min with 80 μl of 0.04% SRB solution prepared in 1% glacial acetic acid. Stain is discarded and plates washed 5 times in 1% glacial acetic acid, then air-dried until completely dry. Stained cell product is dissolved in 150 μl of 10 mM Trizma Base and placed on a shaker for 20 minutes until fully dissolved. Absorbance is read on a Victor V multi-label plate reader (Perkin Elmer, Gaithersburg, Md.).

HL60 = assay: Cell survival assay (MTS), HL60; assay type: cell-based; conditions: Homo sapiens, HL-60; HL60 parental; Table 5; read-out: HL60 IC50, nM (N)
HL60/AR (MRP1) = assay: Cell survival assay, HL60/AR (MRP1); conditions: for IC50: Homo sapiens, HL-60/AR, read-out: HL60/AR (MRP1) IC50, nM (N); for RR, relative resistance: IC50 HL60/AR / IC50 HL60
Description: as §1, §2
(§3) J. Cell Science,113: 2011-2021, 2000). It was unknown whether the hemiasterlin family of peptides interact with these drug pumps.

S1-M1-3.2 (MXR) = assay: Cell survival assay, S1-M1-3.2 (MXR); assay type: cell-based, human; conditions: for IC50: Homo sapiens, S1-M1-3.2, MXR over-expression, Table 5, read-out: S1-M1-3.2 (MXR) IC50, nM (N); for RR, relative resistance: IC50 S1-M1-3.2 / IC50 S1
Description: as §1, §2, §3

KB-HTI-4.0 = assay: Cell survival assay, KB-3-1 line made resistant to Example 129 (KB-HTI-4.0); assay type: cell-based, human; conditions: for IC50: KB-3-1 line made resistant to Example 129, Table 8, read-out: KB-HTI-4.0 IC50
Description: as §1, §2
Cells are selected for resistance to Example 129 to understand the frequency and mechanistic basis of resistance.

tumor cell lines = assay: cells; assay type: cell-based; conditions: HL60/AR (MRP1) or S1-M1-3.2 (MXR)
Description: as §1, §2

KB-PTX-15+099 = assay: Cell survival assay, KB-PTX-15+099 (paclitaxel-resistant, non-MDR); assay type: cell-based, human
A549.EpoB40 = assay type: cell-based; conditions: vs A549; below 1 = sensitive
Description: as §1
as §2, with “Stained cell product is dissolved in 150 μl of 10 mM Trizma Base and placed on a shaker for 20 minutes until fully dissolved.” left out

[5] = system: Human Melanoma Carcinoma Lox; conditions: staged LOX xenograft; at MTD ('<': MTD not achieved); days 11-15
MX-1W tumor = assay: Growth of tumors in nude mice, MX-1W xenograft; assay type: in vivo; conditions: staged MX-1W xenograft; at MTD; days 11-15
Description: 2.4. Growth of Tumors in Nude Mice.

[6] = KB-3-1 cells (paclitaxel-sensitive parent), read-out: In vitro IC50 (nM) KB-3-1
[7] = Homo sapiens, KB-3-1 parental, Table 3, read-out: KB-3-1 IC50, nM (N)
[8] = Homo sapiens, KB-3-1 parental, Table 8, read-out: KB-3-1 IC50
[9] = MDR1, read-out: KB-8-5 (MDR1+) IC50, nM (N)
[10] = read-out: KB-V1 (MDR1++) IC50, nM (N)

Compound	IC50 (KB-3-1; [6]) [nM]	IC50 (KB-8-5 (MDR1+) [1]) [nM]	IC50 (KB-V1 (MDR1++) [2]) [nM]	Ratio KB85/KB (KB-8-5 (MDR1+) [3])	Ratio KBV1/KB (KB-V1 (MDR1++) [4])	IC50 (S1) [nM]	IC50 (HL60) [nM]	IC50 (HL60/AR (MRP1)) [nM]	RR, relative resistance (HL60/AR (MRP1))	IC50 (S1-M1-3.2 (MXR)) [nM]	RR, relative resistance (S1-M1-3.2 (MXR))	IC50 (KB-HTI-4.0; Homo sapiens) [nM]	(RR) relative resistance vs. parental cells (KB-HTI-4.0; KB-HTI-4.0 vs KB-3-1)	RR, relative resistance (KB-8-5 (MDR1+) [3]; Table 3)	RR, relative resistance (KB-V1 (MDR1++) [4]; Table 3)	also measured
CN[C@@H](C(=O)N[C@H](C(=O)N(C)[C@H](/C=C(\C)C(=O)O)C(C)C)C(C)(C)C)C(C)(C)c1ccc(OC(C)C)cc1 [Example 69, 0-isopropyl-N,β,β-trimethyl-D-tyrosyl-N^1-[(1S,2E)-3-carboxy-1-isopropylbut-2-enyl]-N^1,3-dimethyl-L-valinamide]	55	151	2340	2.8	42.6	–	–	–	–	–	–	–	–	–	–	–
CCN(C(=O)[C@@H](NC(=O)[C@@H](NC)C(C)(C)c1ccccc1)C(C)C)[C@H](/C=C(\C)C(=O)O)C(C)C.O=C(O)C(F)(F)F [Example 95, N,β,β-trimethyl-L-phenylananyl-N^1-[(1S,2E)-3-carboxy-1-isopropylbut-2-enyl]-N^1-ethyl-L-valinamide Trifluoroacetic Acid]	38.6	82	2550	2.1	66.0	–	–	–	–	–	–	–	–	–	–	–
CN[C@H](C(=O)N[C@H](C(=O)N(C)[C@H](/C=C(\C)C(=O)O)C(C)C)C(C)(C)C)C(C)(C)c1ccccc1 [Example 134, (E,4S)-4-[((2S)-3,3-dimethyl-2-{[(2S)-3-methyl-2-(methylamino)-3-phenylbutanoyl]amino}butanoyl)(methyl)amino]-2,5-dimethyl-2-hexenoic Acid]	–	–	–	1.4	31.3	–	–	–	–	–	–	–	–	–	–	IC50 (KB-3-1; read-out: In vitro IC50 (nM) KB-3-1): 28 nM; IC50 (KB-8-5 (MDR1+) [1]; human): 39 nM; IC50 (KB-V1 (MDR1++) [2]; human): 879 nM
CN[C@H](C(=O)N[C@@H](CCC(=O)O)C(=O)N(C)[C@H](/C=C(\C)C(=O)O)C(C)C)C(C)(C)c1ccccc1 [Example 139, N,β,β-trimethyl-L-phenylalanyl-N^1-[(1S,2E)-3-carboxy-1-isopropyl-2-butenyl]-N^1-methyl-L-alpha-glutamine]	503	975	≥ 3000	1.9	6.0	–	–	–	–	–	–	–	–	–	–	–
COc1cccc2c1C(=O)c1c(O)c3c(c(O)c1C2=O)C[C@@](O)(C(=O)CO)C[C@@H]3O[C@H]1C[C@H](N)[C@H](O)[C@H](C)O1 [adriamycin]	–	–	–	–	–	221 ± 113	24.2 ± 6.8	> 3000	>124	11500 ± 367	52	552 ± 111	(16)	15	265	IC50 (KB-3-1; [7]): 43.3 ± 32 nM; IC50 (KB-3-1; [8]): 33.9 ± 21.2 nM; IC50 (KB-8-5 (MDR1+) [3]; [9]): 658 ± 483 nM; resistance of KB-8-5 cells (KB-8-5 (MDR1+) [3]): 15 fold; IC50 (KB-V1 (MDR1++) [4]; [10]): 11500 ± 9670 nM
O=C1c2c(O)ccc(O)c2C(=O)c2c(NCCNCCO)ccc(NCCNCCO)c21 [mitoxantrone]	–	–	–	–	–	31	5.9	190	32.4	16600	535	430 ± 159	(43)	1.9	>291	IC50 (KB-3-1; [7]): 10.3 ± 6.9 nM; IC50 (KB-3-1; [8]): 10 ± 6.5 nM; IC50 (KB-8-5 (MDR1+) [3]; [9]): 19.1 nM; IC50 (KB-V1 (MDR1++) [4]; [10]): > 3000 nM
CC[C@]1(O)C[C@@H]2CN(CCc3c([nH]c4ccccc34)[C@@](C(=O)OC)(c3cc4c(cc3OC)N(C)[C@H]3[C@@](O)(C(=O)OC)[C@H](OC(C)=O)[C@]5(CC)C=CCN6CC[C@]43[C@@H]65)C2)C1 [vinblastine]	–	–	–	–	–	6.5	0.5	2	3.7	12.7	1.9	6.19 ± 1.26	–	37	1848	resistance detected in cells over-expressing MRP1 or MXR (tumor cell lines): no resistance; IC50 (KB-3-1; Homo sapiens, KB 3-1, 72 h, amount of drug needed to kill 50% of cells after three days continuous exposure, Table 11, read-out: IC50 in parental cell line KB-3-1): 0.8 nM; IC50 (KB-3-1; Homo sapiens, KB 3-1, KB-3-1, Table 6, read-out: KB-3-1 IC50): 0.703 ± 0.097 nM; IC50 (KB-3-1; Homo sapiens, KB 3-1, KB-3-1 parental, Table 3, read-out: KB-3-1 IC50, nM (N)): 0.79 ± 0.5 nM; IC50 (KB-3-1; Homo sapiens, KB 3-1, KB-3-1 parental, Table 8, read-out: KB-3-1 IC50): 0.73 ± 0.03 nM; IC50 (KB-PTX-15+099; Homo sapiens, KB-PTX-15+099, Table 6, read-out: KB-PTX-15+099 IC50): 0.192 ± 0.022 nM; Average Relative Resistance (RR) (KB-PTX-15+099; IC50 KB-PTX-15+099 / IC50 KB-3-1, less than 1 = increased sensitivity): (0.27); increased sensitivity of KB-PTX-15+099 cells (KB-PTX-15+099; vs KB-3-1): 3.7 fold; (RR) relative resistance vs. parental cells (KB-HTI-4.0): (9); resistance of KB-3-1-derived cell lines selected with Example 129 (KB-HTI-4.0; vs KB-3-1): 9 fold; resistance of A549.EpoB40 cells (A549.EpoB40): 0.2 fold; Activity in nude mice animal model (% T/C @ MTD on days 11-15) LOX [5]: 9%; Activity in nude mice animal model (% T/C @ MTD on days 11-15) MX-1W (MX-1W tumor): 64%; IC50 (KB-8-5 (MDR1+) [3]; MDR1, read-out: KB-8-5 (MDR1+) IC50, nM (N), KB-8-5, moderate MDR1 expression, Table 3): 29.2 ± 22 nM; resistance of KB-8-5 cells (KB-8-5 (MDR1+) [3]): 37 fold; IC50 (KB-V1 (MDR1++) [4]; read-out: KB-V1 (MDR1++) IC50, nM (N), KB-V1, high MDR1 expression, Table 3): 1460 ± 1020 nM
epothilone B	–	–	–	–	–	–	–	–	–	–	–	–	(4)	–	–	IC50 (KB-3-1; KB-3-1 parental, Table 8, read-out: KB-3-1 IC50): 0.63 ± 0.08 nM; IC50 (KB-HTI-4.0): 2.37 ± 2.2 nM; resistance of A549.EpoB40 cells (A549.EpoB40): 107 fold
